Test results from US10647664B2, “Substituted hydroxamic acid compounds” (Duke University, priority 2013, dated 2020).
Converted amounts (≈) assume the structure as drawn.

What was measured:
[1] = tested on: wild-type E. coli (W3110); test: Minimum inhibitory concentration (MIC), E. coli W3110; format: cell-based; conditions: LB medium, 5% DMSO, 22 hours at 37° C., MTT; for MIC: Escherichia coli, 22 h
[2] = tested on: F. novicida U112 (FNU112); test: microbe, parasite or virus in culture; format: cell-based; conditions: Francisella tularensis, read-out: MIC FNU112, F. novicida U112
P. aeruginosa PA01 = test: MIC, P. aeruginosa PA01; format: cell-based; conditions: Pseudomonas aeruginosa
K. pneumonia (43816) = test: MIC, K. pneumonia (43816); format: cell-based
Protocol: (§1) MICs are determined according to the NCCLS protocol using 96-well plates. Briefly, diluted bacterial cells (10^6 cells/mL) are added into each well of the 96-well plates containing LB medium with 5% DMSO and various concentrations of the compound of disclosure. After incubation of the plates for 22 hours at 37° C., [4,5-dimethylthiazol-2-yl]-2,5-diphenyltetrazolium bromide solution (MTT) is added (final concentration, 0.2 mg/mL) and incubated at 37° C. for another 3 hrs. MIC is determined as the lowest concentration of an antibiotic that prevented color change (yellow to purple).
(§2) Additional results of minimum inhibitory concentrations (MICs) using V. cholera (P4), S. typhimurium (LT2), and K. pneumonia (43816) are shown in Table 2

V. cholera (P4) = test: MIC, V. cholera (P4); format: cell-based; design: unit not given beside the values
Protocol: as §1, §2

S. typhimurium (LT2) = test: MIC, S. typhimurium (LT2); format: cell-based
Protocol: as §1, §2

[3] = tested on: N. gonorrhoeae 35/02 (drug-resistant strain); conditions: N. gonorrhoeae strain 35/02; description of the strain's resistance; cited from earlier work

Compound	MIC [1] [mg/L]	MIC [2] [mg/L]	MIC (P. aeruginosa PA01; PA01) [mg/L]	other results
CC(NC(=O)c1ccc(C#Cc2ccc(CN3CCOCC3)cc2)cc1)(C(=O)NO)C(C)(O)C(F)F (centres unmarked) [Example 2, N-(4,4-difluoro-3-hydroxy-1-(hydroxyamino)-2,3-dimethyl-1-oxobutan-2-yl)-4-((4-(morpholinomethyl)phenyl)ethynyl)benzamide]	6.25 (≈ 12.5 µM)	50 (≈ 99.7 µM)	–	–
C[C@@](O)(C(F)F)[C@H](NC(=O)c1ccc(C#Cc2ccc(CN3CCNCC3)cc2)cc1)C(=O)NO [Example 19]	> 1	2.5 (≈ 5.14 µM)	> 5	–
C[C@@](O)(C(F)F)[C@H](NCCCc1ccc(C#Cc2ccccc2)cc1)C(=O)NO [Example 3, (2S,3S)-4,4-difluoro-N,3-dihydroxy-3-methyl-2-((3-(4-(phenylethynyl)phenyl)propyl)amino)butanamide]	1.6 (≈ 3.98 µM)	–	–	–
CC(CCn1ccc(C#Cc2ccccc2)cc1=O)(C(=O)NO)S(C)(=O)=O (centres unmarked) [Example 30, N-hydroxy-2-methyl-2-(methylsulfonyl)-4-(2-oxo-4-(phenylethynyl)pyridin-1 (2H)-yl)butanamide]	< 0.78	–	< 0.78	–
C[C@@](O)(C(F)F)[C@H](NC(=O)c1ccc(C#CC#CCN2CCOCC2)cc1)C(=O)NO [Example 21, N-((2S,3S)-4,4-difluoro-3-hydroxy-1-(hydroxyamino)-3-methyl-1-oxobutan-2-yl)-4-(5-morpholinopenta-1,3-diyn-1-yl)benzamide]	0.46 (≈ 1.06 µM)	> 5	1.56 (≈ 3.58 µM)	–
C[C@@H](O)[C@](C)(NC(=O)c1ccc(C#CC#Cc2ccc(N)cc2)cc1)C(=O)NO [Example 1, 4-((4-aminophenyl)buta-1,3-diynyl)-N-(3-hydroxy-1-(hydroxyamino)-2-methyl-1-oxobutan-2-yl)benzamide]	0.18 (≈ 0.46 µM)	–	15 (≈ 38.3 µM)	MIC E. coli W3110 [1]: 0.13 mg/L (≈ 0.332 µM); MIC K. pneumonia (43816) (K. pneumonia (43816)): 0.6; MIC V. cholera (P4) (V. cholera (P4)): 0.03; MIC S. typhimurium (LT2) (S. typhimurium (LT2)): 0.144; MIC (P. aeruginosa PA01; PA01, P. aeruginosa PA01): 6.25 mg/L (≈ 16 µM)
CO/N=C(\C(=O)N[C@@H]1C(=O)N2C(C(=O)O)=C(CSc3nc(=O)c(=O)[nH]n3C)CS[C@H]12)c1csc(N)n1 [ceftriaxone]	–	–	–	MIC [3]: 0.12 mg/L (≈ 0.216 µM)
penicillin	–	–	–	MIC [3]: 6 mg/L
CC(C#CC#Cc1ccc(C(=O)N[C@H](C(=O)NO)[C@](C)(O)C(F)F)cc1)N1CCOCC1 (stereo partly drawn) [Example 22, N-((2S,3S)-4,4-difluoro-3-hydroxy-1-(hydroxyamino)-3-methyl-1-oxobutan-2-yl)-4-(5-morpholinohexa-1,3-diyn-1-yl)benzamide]	> 1	> 5	5 (≈ 11.1 µM)	–
